Test system: Septoria tritici
Experiment: Growth assay with Septoria tritici as indicator fungus (photometric)
Format: cell-based
Settings: Zymoseptoria tritici; active ingredient concentration 1 ppm, individual active ingredient
Description: Efficacy of Formulations According to the Invention Comprising Copper and a Further Fungicidal Active Ingredient Against Septoria tritici.
A growth assay was carried out with Septoria tritici as indicator fungus. The fungal growth was measured photometrically by the increase in absorption or light scattering as a function of mycelium density. The data were converted into percent growth inhibition, the absorption of the untreated controls being defined as 0% inhibition and that of a killed spore suspension as reference as 100% inhibition.
The expected efficacies of combinations of active ingredients were determined using Colby's formula (Colby, S. R. “Calculating synergistic and antagonistic responses of herbicide combinations”, Weeds, 15, pp. 20-22, 1967) and compared with the observed efficacies.
Colby's formula: E=x+y−x·y/100 • E expected efficacy, expressed in % of the untreated control, when using the mixture of the active ingredients A and B at the concentrations a and b • x efficacy, expressed in % of the untreated control, when using the active ingredient A at the concentration a
y efficacy, expressed in % of the untreated control, when using the active ingredient B at the concentration b

For `COC(=O)N(OC)c1ccccc1COc1ccn(-c2ccc(Cl)cc2)n1` [II, Pyraclostrobin], the inhibition at 1 ppm was 73%.

Source: patent US20070191227A1, “Use of basic amino acids in copper-containing fungicidal formulations” (priority 2003, published 2007)
